Measurements reported in patent publication US5298494A, “Monosaccharides having anti-proliferation and anti-inflammatory activity, compositions and uses thereof” (Greenwich Pharmaceuticals Incorporated, priority 1993, dated 1994).
Read-outs that look alike come from different tables or passages of the source.

Tests used:
[1] = tested on: T lymphocytes (normal mouse spleen cells) stimulated with ConA; assay: Mouse Spleen Cell ConA Blastogenesis Assay; format: cell-based, mouse (C57Bl/6); details: Mus musculus, T-lymphocyte; for inhibition at 0.1 µg/mL: compound 0.1 ug/ml; for inhibition at 1 µg/mL: compound 1 ug/ml; for inhibition at 2.5 µg/mL: compound 2.5 ug/ml; for inhibition at 10 µg/mL: compound 10 ug/ml; for inhibition at 25 µg/mL: compound 25 ug/ml; for inhibition at 100 µg/mL: compound 100 ug/ml
[2] = tested on: Interleukin 1 (IL-1) production by peritoneal macrophages; assay: IL-1 Assay: production of interleukin-1 by peritoneal macrophages (thymocyte bioassay); format: cell-based, mouse (C57B1/6); parameters: inhibition: dose or concentration left out as unconfirmed
Excerpt: Interleukin 1 (IL-1) is a potent immunomodulatory cytokine that has a broad range of pro-inflammatory activities. IL-1 is known to be produced by activated accessory cells such as macrophages. Accessory cell production of IL-1 results in the activation and proliferation of T and B lymphocytes. Therefore, by inhibiting macrophage activation and production of IL-1, the activation and proliferation of the cellular effectors of inflammation can be modulated. Compounds of the invention were screened for inhibitory activity in a classical IL-1 assay. Six to 8 week old male C57B1/6 mice were purchased from Harlan Sprague Dawley. Peritoneal macrophages were elicited by the administration to mice of a single intraperitoneal injection of 0.2 ml of complete Freund's adjuvant. After 48 hours, elicited macrophages were removed from the mice by lavage with the use of Hank's balanced salt solution. […] To the macrophage cultures were added various doses of the compounds of the invention and 10 ug/ml of the macrophage activator lipopolysaccharide (to stimulate IL-1 production). Control cultures consisted of macrophages, lipopolysaccharide and culture medium containing various doses of DMSO only. […] The amount of IL-1 produced in the individual wells was determined in a bioassay for IL-1. This involved the removal of thymuses from mice less than 8 weeks of age. Thymocytes were isolated by passing each thymus through a stainless steel mesh screen. […] After 18 hours cells were harvested and radioactive incorporation (as a measure of cell proliferation) was quantitated in a liquid scintillation counter. The students t test was used to determine the significance of the difference between experimental and control values.

[3] = tested on: T cell proliferation in mouse spleen cell mixed lymphocyte cultures; assay: Mixed Lymphocyte Reaction (MLR) assay; format: cell-based, mouse (Balb/c responder, C57B1/6 stimulator)
Excerpt: The pharmacologic assays performed to determine the immunomodulatory effects of the experimental compounds in vitro include the Mixed Lymphocyte Reaction (MLR) and the ConA blastogenesis assay. These assays were used to determine the inhibitory effects of the compounds of the invention on T lymphocyte activation and proliferation. Since inflammation at the cellular level is characterized by T lymphocyte recruitment, activation and proliferation, these assays are appropriate to use as screens for novel compounds having therapeutic potential in the treatment of disorders in which inflammatory mechanisms are involved.
The MLR is a classical assay used to measure T cell function by studying the proliferative response of T cells which are activated in vitro by genetically disparate stimulator cells. This is accomplished by co-culturing spleen cells from two different strains of mice. Splenic T cell proliferation occurs as a result of cellular activation signals generated by the ongoing cellular interactions.
Balb/c mice were euthanised by cervical dislocation and their spleens removed. Single cell suspensions of the spleens were prepared in culture medium (hepes buffered RPMI-1640 supplemented with 10% fetal calf serum, 2mM glutamine, 500 units penicillin/ streptomycin, and 4×10^-5 M 2-mercaptoethanol) using a Teflon pestle. The cells were centrifuged at 1500 rpm and the pellets resuspended in ACT (0.15M tris, 0.14M ammonium chloride, pH 7.2) in order to lyse the red blood cells. After a 5 minute incubation in a 37 C. waterbath, the cells were resuspended in culture medium and counted. C57B1/6 spleen cells which were used as stimulator cells, were also prepared by this method. The stimulator cells were treated with 100 ug/ml of mitomycin c for 1 hour at 37 C. (to inhibit stimulatory cell proliferation) and were then washed 5 times in culture medium. The proliferative responses were measured by culturing 2.5×10^5 responder cells with 5×10^5 stimulatory cells in 96 well microtiter plates in the presence or absence of various doses of test compounds or vehicle (DMSO). Syngeneic control cultures using mitomycin c treated Balb/c spleen cells as stimulator cells were also run. All cultures were run in triplicate.
Solutions of compounds of the present invention in DMSO were prepared at a stock concentration of 120 Mm. Dilutions were made in culture medium to the following concentrations: 3, 10, 30, 100, and 300 uM. The vehicle (DMSO) was used as a negative control.
After incubation of for 5 days at 37 C. with 5% CO2, the amount of cell proliferation was measured by adding 20 ul of MTT (3-[4,5-dimethylthiazol-2-yl]-2,5diphenyl-tetrazolium bromide) (10 mg/ml in phosphate buffered saline) to each well. Plates were incubated for 4 hours at 37 C., after which 180 ul of 10% sodium dodecyl sulphate in phosphate buffered saline was added. After an overnight incubation, the optical density (OD) of each well was read on a Molecular Devices microplate reader at 570-650 nm. The results were determined by calculating the difference between the means of the allogeneic cultures and the means of the syngenic cultures for each test article concentration. Differences of the test article groups were compared to the control group and the percent change from the control was determined.

[4] = ConA 1 ug/ml, 0.01 ug/ml, read-out: % Change from Control (Table II)
[5] = ConA 1 ug/ml, compound 0.01 ug/ml, read-out: % change from control, ConA blastogenic response
[6] = ConA 1 ug/ml, read-out: % change from control, ConA blastogenic response
[7] = ConA 4 ug/ml, 0.01 ug/ml, read-out: % Change from Control (Table II)
[8] = ConA 4 ug/ml, compound 0.01 ug/ml, read-out: % change from control, ConA blastogenic response
[9] = ConA 4 ug/ml, read-out: % change from control, ConA blastogenic response

| Structure (SMILES) | inhibition at 0.01 µg/mL [1, 4] | inhibition at 0.01 µg/mL [1, 5] | inhibition at 0.1 µg/mL [1, 6] | inhibition at 1 µg/mL [1, 6] | inhibition at 2.5 µg/mL [1, 6] | inhibition at 10 µg/mL [1, 6] | inhibition at 25 µg/mL [1, 6] | inhibition at 100 µg/mL [1, 6] | inhibition at 0.01 µg/mL [1, 7] | inhibition at 0.01 µg/mL [1, 8] | inhibition at 0.1 µg/mL [1, 9] | inhibition at 1 µg/mL [1, 9] | inhibition at 2.5 µg/mL [1, 9] | inhibition at 10 µg/mL [1, 9] | inhibition at 25 µg/mL [1, 9] | inhibition at 100 µg/mL [1, 9] | other results |
| --- | --- | --- | --- | --- | --- | --- | --- | --- | --- | --- | --- | --- | --- | --- | --- | --- | --- |
| CCCCCC#CCOC[C@H]1O[C@@]2(OC)COC(C)(C)O[C@H]2[C@@H]1OCC#CCCCCC [Id, methyl 1,3-O-isopropylidene-4,6-di-O-(2-octynyl)-α-D-fructofuranoside] | 9% | 10% | 25% | 67% | 91% | 100% | 100% | 99% | 16% | 14% | 27% | 75% | 94% | 100% | 100% | 99% | ^3 H-Thymidine uptake by thymocytes ([2]; 0.001 ug/ml): 10,850 ± 995 cpm; ^3 H-Thymidine uptake by thymocytes ([2]; 0.01 ug/ml): 13,080 cpm; ^3 H-Thymidine uptake by thymocytes ([2]; 0.1 ug/ml): 13,190 ± 560 cpm; ^3 H-Thymidine uptake by thymocytes ([2]; 1 ug/ml): 9,880 ± 1,029 cpm; ^3 H-Thymidine uptake by thymocytes ([2]; 2.5 ug/ml): 6,400 ± 1,070 cpm; ^3 H-Thymidine uptake by thymocytes ([2]; 10 ug/ml): 3,050 ± 191 cpm; ^3 H-Thymidine uptake by thymocytes ([2]; 25 ug/ml): 2,537 ± 182 cpm; ^3 H-Thymidine uptake by thymocytes ([2]; 100 ug/ml): 1,930 cpm; inhibition at 0.001 µg/mL ([2]; Mus musculus, Peritoneal macrophage, 0.001 ug/ml, read-out: % effect on IL-1 production (thymidine uptake by thymocytes)): 0%; inhibition at 0.01 µg/mL ([2]; Mus musculus, Peritoneal macrophage, 0.01 ug/ml, read-out: % effect on IL-1 production (thymidine uptake by thymocytes)): -20%; inhibition at 0.1 µg/mL ([2]; Mus musculus, Peritoneal macrophage, 0.1 ug/ml, read-out: % effect on IL-1 production (thymidine uptake by thymocytes)): -19%; inhibition at 2.5 µg/mL ([2]; Mus musculus, Peritoneal macrophage, 2.5 ug/ml, read-out: % effect on IL-1 production (thymidine uptake by thymocytes)): 44%; inhibition at 10 µg/mL ([2]; Mus musculus, Peritoneal macrophage, 10 ug/ml, read-out: % effect on IL-1 production (thymidine uptake by thymocytes)): 70%; inhibition at 25 µg/mL ([2]; Mus musculus, Peritoneal macrophage, 25 ug/ml, read-out: % effect on IL-1 production (thymidine uptake by thymocytes)): 71%; inhibition at 100 µg/mL ([2]; Mus musculus, Peritoneal macrophage, 100 ug/ml, read-out: % effect on IL-1 production (thymidine uptake by thymocytes)): 78%; inhibition ([2]; Mus musculus, Peritoneal macrophage, read-out: % effect on IL-1 production (thymidine uptake by thymocytes)): 10% |
| CCCCC/C=C\COC[C@H]1O[C@](COC/C=C\CCCCC)(OC)[C@@H](O)[C@@H]1O [Ig, methyl 1,6-di-O-(cis,2-octenyl)-α-D-fructofuranoside] | 3% | -10% | 10% | 4% | 11% | 87% | 84% | 99% | -7% | -12% | 9% | 5% | 20% | 73% | 77% | 100% | Mean O.D. Allogenic ([3]; 3 um): 0.412 O.D.; Mean O.D. Syngeneic ([3]; 3 um): 0.155 O.D.; Mean O.D. Allogenic ([3]; 10 um): 0.421 O.D.; Mean O.D. Syngeneic ([3]; 10 um): 0.182 O.D.; Mean O.D. Allogenic ([3]; 30 um): 0.399 O.D.; Mean O.D. Syngeneic ([3]; 30 um): 0.157 O.D.; Mean O.D. Allogenic ([3]; 100 um): 0.419 O.D.; Mean O.D. Syngeneic ([3]; 100 um): 0.173 O.D.; Mean O.D. Allogenic ([3]; 300 um): 0.474 O.D.; Mean O.D. Syngeneic ([3]; 300 um): 0.037 O.D.; inhibition at 3 µM ([3]; Mus musculus, Lymphocyte, 3 um, read-out: % Change From Control, MLR): -34%; inhibition at 10 µM ([3]; Mus musculus, Lymphocyte, 10 um, read-out: % Change From Control, MLR): -24%; inhibition at 30 µM ([3]; Mus musculus, Lymphocyte, 30 um, read-out: % Change From Control, MLR): -26%; inhibition at 100 µM ([3]; Mus musculus, Lymphocyte, 100 um, read-out: % Change From Control, MLR): -28%; inhibition at 300 µM ([3]; Mus musculus, Lymphocyte, 300 um, read-out: % Change From Control, MLR): -81% |
